The record followed here is patent US20100331269A1, “TRITERPENES DERIVATIVES AND USES THEREOF AS ANTITUMOR AGENTS OR ANTI-INFLAMMATORY AGENTS” (priority 2006, published 2010).

The structures appear in SMILES notation.

One may read the IC50 as the concentration needed to halve the response being measured. A higher IC50 goes with weaker potency in that assay.

Experiment [1] relates to WS-1 human normal skin fibroblasts. As to the kind of experiment: Cytotoxicity, resazurin metabolism assay, WS-1. In kind it is cell-based. The note with it: 48 h, mean ± SD. An excerpt: (§1) Human lung carcinoma (A-549), human colon adenocarcinoma (DLD-1), human normal fibroblasts (WS1), mice melanoma (B16-F1), Human glioma (U-251), Human hepatocellular carcinoma (HEP G2), Human prostate adenocarcinoma (PC-3), Human ovary teratocarcinoma metastatic (PA-1), Human breast adenocarcinona metastatic (MDA-MB-231), Human breast adenocarcinoma (MCF-7) and Human malignant melanoma (SK-MEL-2) cell lines were obtained from the American Type Culture Collection (ATCC). All cell lines were cultured in minimum essential medium containing Earle's salts and L-glutamine (Mediatech Cellgro, Va.), to which was added 10% fetal bovine serum (Hyclone), vitamins (1×), penicillin (100 I.U./mL) and streptomycin (100 μg/mL), essential amino acids (1×) and sodium pyruvate (1×) (Mediatech Cellgro, Va.). Cells were kept at 37° C. in a humidified environment containing 5% CO2.
(§2) Exponentially growing cells were plated in 96-well microplates (Costar, Corning Inc.) at a density of 5×10^3 cells per well in 100 μL of culture medium and were allowed to adhere for 16 hours before treatment. Increasing concentrations of each compound in DMSO (Sigma-Aldrich) were then added (100 μL per well) and the cells were incubated for 48 h. […] Cytotoxicity was assessed using resazurin (O'Brien, J. et al., Eur. J. Biochem. 2000, 267, 5421-5426) on an automated 96-well Fluoroskan Ascent F1™ plate reader (Labsystems) using excitation and emission wavelengths of 530 nm and 590 nm, respectively. Fluorescence was proportional to the cellular metabolic activity in each well. Survival percentage was defined as the fluorescence in experimental wells compared to that in control wells after subtraction of blank values. Each experiment was carried out three times in triplicata. IC50 results were expressed as mean±standard deviation.
(§3) The cytotoxicity of triterpenes (1-8) and corresponding glycosides (9-30) (Table 2 below) as well as of germanicane-type triterpenes and glycosides (31-44) (Table 3 below) was assessed towards human cancer (A-549, DLD-1), mouse melanoma (B16-F1) and human normal skin fibroblast (WS1) cell lines using the resazurin reduction test (RTT test) as previously described (O'Brien, J. et al., Eur. J. Biochem. 2000, 267, 5421-5426). Measurements of fluorescence were carried out after 48 continuous hours of contact between compounds and cells. Results presented in Tables 2 and 3 below express the concentration inhibiting 50% of the cell growth (IC50). Known for its activity against A-549, betulinic acid (3) was used as a positive control in this experimentation. […] The cytotoxic activity of some of these compounds was also assessed using the Hoechst DNA assay (Table 4 below).
For orientation: Resazurin is reduced to fluorescent resorufin, in cell work by metabolically active cells.

For experiment [2], the system named is B16-F1 mouse melanoma cells. As to the kind of experiment: Cytotoxicity, resazurin metabolism assay, B16-F1. The format is cell-based. As to conditions: 48 h, mean ± SD.
Source text: as §1, §2, §3

The test system of the next experiment is DLD-1 cells. Nature of the experiment: Cytotoxicity, Hoechst DNA assay, DLD-1. The format is cell-based, human. As to conditions: ± SD.
Source text: as §1, §3

The next experiment has as its system B16-F1 cells. As to the kind of experiment: Cytotoxicity, Hoechst DNA assay, B16-F1. The format is cell-based, mouse. As to conditions: ± SD.
Source text: as §1, §3

A further experiment has as its system A-549 cells. As to the kind of experiment: Cytotoxicity, Hoechst DNA assay, A-549. In kind it is cell-based, human. As to conditions: ± SD.
Source text: as §1, §3

The test system of the next experiment is WS-1 cells. Nature of the experiment: Cytotoxicity, Hoechst DNA assay, WS-1. The format is cell-based, human. As to conditions: ± SD.
Source text: as §1, §3

Experiment [3] concerns DLD-1 human colorectal adenocarcinoma cells. As to the kind of experiment: Cytotoxicity, resazurin metabolism assay, DLD-1. In kind it is cell-based. The note with it: 48 h, mean ± SD.
Source text: as §1, §2, §3

Experiment [4] concerns A-549 human lung carcinoma cells. Nature of the experiment: Cytotoxicity, resazurin metabolism assay, A-549. The format is cell-based. The note with it: 48 h, mean ± SD.
Source text: as §1, §2, §3

`C=C(C)[C@@H]1CC[C@]2(C)CC[C@]3(C)[C@H](CC[C@@H]4[C@@]5(C)CC[C@H](O)C(C)(C)[C@@H]5CC[C@]43C)[C@@H]12` [Compound 1, Lupeol, reference compound]: the IC50 came out at 63 ± 3 µM in experiment [1]; 104 ± 6 µM in experiment [2]; 102 ± 6 µM with DLD-1 cells; 72 ± 9 µM in the experiment on B16-F1 cells; 130 ± 20 µM in the experiment with A-549 cells; 70 ± 10 µM in the experiment on WS-1 cells. In addition, the IC50 in experiment [3] was found to be 125 ± 6 µM; in experiment [4], 165 ± 8 µM.
Take `C=C(C)[C@@H]1CC[C@]2(COC(C)=O)CC[C@]3(C)[C@H](CC[C@@H]4[C@@]5(C)CC[C@H](OC(C)=O)C(C)(C)[C@@H]5CC[C@]43C)[C@@H]12` [Compound 4, 3,28-Diacetoxybetulin]: the IC50 in experiment [1], in experiment [2], in experiment [3] and in experiment [4] was more than 95 µM throughout.
Regarding `C=C(C)[C@@H]1CC[C@]2(C(=O)O)CC[C@]3(C)[C@H](CC[C@@H]4[C@@]5(C)CC[C@H](OC(C)=O)C(C)(C)[C@@H]5CC[C@]43C)[C@@H]12` [Compound 24, 3-Acetoxybetulinic Acid], the results for the IC50 in experiment [1], in experiment [3] and in experiment [4] were 57 ± 6 µM, 20 ± 2 µM and 18 ± 2 µM, respectively.
On the same counts, the results for `C=C(C)[C@@H]1CC[C@]2(CO)CC[C@]3(C)[C@H](CC[C@@H]4[C@@]5(C)CC[C@H](O[C@@H]6O[C@H](CO)[C@H](O)[C@H](O)[C@H]6O)C(C)(C)[C@@H]5CC[C@]43C)[C@@H]12` [Compound 25, 3-O-β-D-Galactopyranoside of Betulin] are more than 100 µM, more than 100 µM and more than 100 µM.
On the same counts, the results for `C=C(C)[C@@H]1CC[C@]2(CO)CC[C@]3(C)[C@H](CC[C@@H]4[C@@]5(C)CC[C@H](O[C@@H]6OC[C@@H](O)[C@H](O)[C@H]6O)C(C)(C)[C@@H]5CC[C@]43C)[C@@H]12` [Compound 27, 3-O-β-D-Xylopyranoside of Betulin] are more than 100 µM, more than 100 µM and 90 ± 10 µM.
On the same counts, the results for `C=C(C)[C@@H]1CC[C@]2(C(=O)O)CC[C@]3(C)[C@H](CC[C@@H]4[C@@]5(C)CC[C@H](O[C@@H]6O[C@H](CO)[C@H](O)[C@H](O)[C@H]6O)C(C)(C)[C@@H]5CC[C@]43C)[C@@H]12` [Compound 28, 3-O-β-D-Galactopyranoside of Betulinic Acid] are more than 100 µM, more than 100 µM and more than 100 µM.
Turning to `CC1(C)CC[C@]23CC[C@]4(C)[C@H](CC[C@@H]5[C@@]6(C)CC[C@H](O)C(C)(C)[C@@H]6CC[C@]54C)[C@H]2[C@H]1OC3` [Compound 31, Allobetulin], the IC50 in experiment [1], in experiment [3] and in experiment [4] was more than 100 µM in each case.
For `CC1(C)CC[C@]23CC[C@]4(C)[C@H](CC[C@@H]5[C@@]6(C)CC[C@H](O)C(C)(C)[C@@H]6CC[C@]54C)[C@H]2[C@H]1OC3=O` [Compound 32, 28-Oxyallobetulin], the figures for the IC50 in experiment [1], in experiment [3] and in experiment [4] were 70 ± 9 µM, more than 100 µM and more than 100 µM, respectively.
As for `C[C@@H]1O[C@@H](O[C@H]2CC[C@]3(C)[C@H]4CC[C@@H]5[C@H]6[C@H]7OC[C@@]6(CCC7(C)C)CC[C@@]5(C)[C@]4(C)CC[C@H]3C2(C)C)[C@H](O)[C@H](O)[C@H]1O` [Compound 34, 3-O-α-L-Rhamnopyranoside of Allobetulin], the figures for the IC50 in experiment [1], in experiment [3] and in experiment [4] were 75 ± 5 µM, more than 100 µM and more than 100 µM, respectively.
For `CC1(C)CCC23CCC4(C)C(CCC5C6(C)CCC(OC7OCC(O)C(O)C7O)C(C)(C)C6CCC54C)C2C1OC3` [Compound 35, 3-O-α-D-Arabinopyranoside of Allobetulin], the IC50 in experiment [1], in experiment [3] and in experiment [4] was more than 100 µM each time.
Regarding `CC1(C)CC[C@]23CC[C@]4(C)[C@H](CC[C@@H]5[C@@]6(C)CC[C@H](O[C@H]7O[C@H](CO)[C@@H](O)[C@H](O)[C@@H]7O)C(C)(C)[C@@H]6CC[C@]54C)[C@H]2[C@H]1OC3` [Compound 37, 3-O-α-D-Mannopyranoside of Allobetulin], the IC50 in experiment [1], in experiment [3] and in experiment [4] was more than 100 µM throughout.
Take `CC1(C)CC[C@]23CC[C@]4(C)[C@H](CC[C@@H]5[C@@]6(C)CC[C@H](O[C@@H]7OC[C@@H](O)[C@H](O)[C@H]7O)C(C)(C)[C@@H]6CC[C@]54C)[C@H]2[C@H]1OC3` [Compound 38, 3-O-β-D-Xylopyranoside of Allobetulin]: the IC50 in experiment [1], in experiment [3] and in experiment [4] was more than 100 µM each time.
For the compound `CC1(C)CCC23CCC4(C)C(CCC5C6(C)CCC(OC7OC(CO)C(O)C(O)C7O)C(C)(C)C6CCC54C)C2C1OC3=O` [Compound 39, 3-O-β-D-Glucopyranoside of 28-Oxyallobetulin], the IC50 in experiment [1], in experiment [3] and in experiment [4] was more than 100 µM throughout.
Take `C[C@@H]1O[C@@H](O[C@H]2CC[C@]3(C)[C@H]4CC[C@@H]5[C@H]6[C@H]7OC(=O)[C@@]6(CCC7(C)C)CC[C@@]5(C)[C@]4(C)CC[C@H]3C2(C)C)[C@H](O)[C@H](O)[C@H]1O` [Compound 40, 3-O-α-L-Rhamnopyranoside of 28-Oxyallobetulin]: the half-inhibitory concentration (IC50) in experiment [1], in experiment [3] and in experiment [4] was more than 100 µM throughout.
For the compound `CC1(C)CC[C@]23CC[C@]4(C)[C@H](CC[C@@H]5[C@@]6(C)CC[C@H](O[C@H]7OC[C@@H](O)[C@@H](O)[C@@H]7O)C(C)(C)[C@@H]6CC[C@]54C)[C@H]2[C@H]1OC3=O` [Compound 41, 3-O-α-D-Arabinopyranoside of 28-oxyallobetulin], the IC50 in experiment [1], in experiment [3] and in experiment [4] was more than 100 µM in each case.
Regarding `CC1(C)CC[C@]23CC[C@]4(C)[C@H](CC[C@@H]5[C@@]6(C)CC[C@H](O[C@@H]7O[C@H](CO)[C@H](O)[C@H](O)[C@H]7O)C(C)(C)[C@@H]6CC[C@]54C)[C@H]2[C@H]1OC3=O` [Compound 42, 3-O-β-D-Galactopyranoside of 28-Oxyallobetulin], the IC50 in experiment [1], in experiment [3] and in experiment [4] was more than 100 µM in each case.
`CC1(C)CC[C@]23CC[C@]4(C)[C@H](CC[C@@H]5[C@@]6(C)CC[C@H](O[C@H]7O[C@H](CO)[C@@H](O)[C@H](O)[C@@H]7O)C(C)(C)[C@@H]6CC[C@]54C)[C@H]2[C@H]1OC3=O` [Compound 43, 3-O-α-D-Mannopyranoside of 28-oxyallobetulin]: the IC50 in experiment [1], in experiment [3] and in experiment [4] was more than 100 µM each time.
As to `CC1(C)CC[C@]23CC[C@]4(C)[C@H](CC[C@@H]5[C@@]6(C)CC[C@H](O[C@@H]7OC[C@@H](O)[C@H](O)[C@H]7O)C(C)(C)[C@@H]6CC[C@]54C)[C@H]2[C@H]1OC3=O` [Compound 44, 3-O-β-D-Xylopyranoside of 28-Oxyallobetulin], the IC50 in experiment [1], in experiment [3] and in experiment [4] was more than 100 µM throughout.
